Test results from ChEMBL document CHEMBL1201862, “PubChem BioAssay data set” (2004).
The source made the active and inactive calls. Rule as the data show it, for most assays here: actives have a measured EC50 and inactives only a lower limit.

Assays:
[1] = target: T1, Rac GTPase-activating protein 1 (Homo sapiens, UniProt Q9H0H5); assay: blockers of MgcRacGAP-driven Rac1 GTP hydrolysis – biochemical, ADP Hunter fluorescence, primary and confirmatory, confirmation (AID 624330); format: functional
T1 sequence (Q9H0H5 whole entry): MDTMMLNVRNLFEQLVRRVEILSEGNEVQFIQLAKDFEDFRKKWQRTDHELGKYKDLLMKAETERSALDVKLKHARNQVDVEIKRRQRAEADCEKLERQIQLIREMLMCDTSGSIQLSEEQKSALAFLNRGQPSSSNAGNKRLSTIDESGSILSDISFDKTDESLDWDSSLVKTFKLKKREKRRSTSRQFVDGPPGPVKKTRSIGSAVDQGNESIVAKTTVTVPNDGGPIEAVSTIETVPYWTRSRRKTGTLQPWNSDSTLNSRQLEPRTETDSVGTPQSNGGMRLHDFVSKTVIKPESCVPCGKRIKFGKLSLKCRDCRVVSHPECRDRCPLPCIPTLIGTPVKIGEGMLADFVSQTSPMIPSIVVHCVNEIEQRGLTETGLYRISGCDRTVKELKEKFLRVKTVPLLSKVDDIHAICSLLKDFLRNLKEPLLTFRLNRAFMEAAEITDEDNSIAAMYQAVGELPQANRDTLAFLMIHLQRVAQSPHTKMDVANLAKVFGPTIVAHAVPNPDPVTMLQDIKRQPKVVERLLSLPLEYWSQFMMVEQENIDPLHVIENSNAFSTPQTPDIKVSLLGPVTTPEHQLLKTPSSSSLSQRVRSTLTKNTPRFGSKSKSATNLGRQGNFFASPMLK

Cytochrome P450 2C9 = Cytochrome P450 2C9 (Homo sapiens, UniProt P11712)
Sequence of Cytochrome P450 2C9 (P11712 whole entry): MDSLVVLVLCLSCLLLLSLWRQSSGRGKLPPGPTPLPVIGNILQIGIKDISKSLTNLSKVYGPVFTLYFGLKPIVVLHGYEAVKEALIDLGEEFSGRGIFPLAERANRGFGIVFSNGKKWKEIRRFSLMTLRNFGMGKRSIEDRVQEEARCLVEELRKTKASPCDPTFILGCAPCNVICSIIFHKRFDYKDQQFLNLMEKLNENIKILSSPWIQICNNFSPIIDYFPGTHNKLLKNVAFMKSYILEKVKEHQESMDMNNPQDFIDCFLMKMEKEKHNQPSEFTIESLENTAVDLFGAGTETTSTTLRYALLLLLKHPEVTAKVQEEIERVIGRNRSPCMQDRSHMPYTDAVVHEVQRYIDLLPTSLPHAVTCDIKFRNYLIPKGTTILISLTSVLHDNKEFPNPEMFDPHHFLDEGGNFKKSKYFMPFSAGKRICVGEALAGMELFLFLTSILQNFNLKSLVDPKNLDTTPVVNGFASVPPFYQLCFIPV

[2] = target: FAD-linked sulfhydryl oxidase ALR (Homo sapiens, UniProt P55789); assay: ALR-catalysed DTT oxidation blockers – biochemical, H2O2 detection, luminescence, cherry-pick, dose response (AID 493248)
Sequence of FAD-linked sulfhydryl oxidase ALR (P55789 whole entry): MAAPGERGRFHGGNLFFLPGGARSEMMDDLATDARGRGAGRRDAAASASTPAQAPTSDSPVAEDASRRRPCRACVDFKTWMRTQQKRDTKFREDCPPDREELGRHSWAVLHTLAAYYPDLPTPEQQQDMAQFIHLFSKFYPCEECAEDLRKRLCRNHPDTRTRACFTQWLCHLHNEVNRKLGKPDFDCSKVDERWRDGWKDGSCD

[3] = Luminescence Cell-Based Dose Response HTS to Identify Inhibitors of 5'UTR Stem-Loop Driven Prion Protein mRNA Translation in H4 Neuroglioblastoma Cells. [Related pubchem assays: 1827 (Project Summary), 1813 (Primary HTS)]; format: functional
[4] = luciferase reporter signal suppression in cells – H4 neuroglioma cells, luminescence, dose response (AID 1990); format: functional, cell-based
[5] = alpha-synuclein stem-loop luciferase translation blockers – H4 neuroglioma cells, luminescence, confirmation (AID 1988); format: functional, cell-based
[6] = tested on: Streptococcus sp. 'group A'; assay: Streptococcus pyogenes SK(-)GAS viability under kanamycin – luminescence, BacTiterGlo, confirmation, counter-screen for streptokinase expression inhibitor project, dose response (AID 1900); format: functional, organism-based
Streptokinase A = target: T2, Streptokinase A (Streptococcus pyogenes serotype M1, UniProt P10520); assay: viability-normalized secreted streptokinase activity reduction – plasminogen activation absorbance, OD405, dose response (AID 1914); format: functional, Streptococcus pyogenes M1 GAS;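 also: secreted streptokinase activity via plasminogen activation per viability signal from cell pellet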
T2 sequence (P10520 whole entry): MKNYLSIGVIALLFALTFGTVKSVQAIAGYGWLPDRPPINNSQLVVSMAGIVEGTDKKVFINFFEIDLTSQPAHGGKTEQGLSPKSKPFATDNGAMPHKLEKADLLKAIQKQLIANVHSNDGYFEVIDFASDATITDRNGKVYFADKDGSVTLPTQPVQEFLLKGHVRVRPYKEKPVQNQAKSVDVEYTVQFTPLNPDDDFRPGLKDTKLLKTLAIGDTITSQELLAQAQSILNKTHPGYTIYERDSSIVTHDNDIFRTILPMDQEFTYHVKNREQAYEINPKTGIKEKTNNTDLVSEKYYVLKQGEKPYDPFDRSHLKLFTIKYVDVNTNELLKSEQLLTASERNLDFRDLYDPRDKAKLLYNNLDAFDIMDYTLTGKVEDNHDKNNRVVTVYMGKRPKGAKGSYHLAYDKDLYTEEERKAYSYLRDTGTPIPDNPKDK

Streptococcus = assay: GAS UMAA2166 growth inhibition – luminescence, BacTiterGlo, counter-screen for streptokinase expression inhibitor project, dose response (AID 1915); format: functional, organism-based;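 also: potency for reduction of bacterial viability or growth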
[7] = viability of uninfected HEp-2 cells – cell-based, HTS, cytotoxicity control for RSV inhibitor project, dose response (AID 2410); format: functional; conditions: human respiratory syncytial virus
[8] = Luminescence Cell-Based Dose Response HTS to Identify Activators of Luciferase Translation or Activity in H4 […] Cells. [Related pubchem assays: 1829 (Project Summary), 1814 (Primary HTS)]; format: functional
H4 = assay: Luminescence Cell-Based Dose Response HTS to Identify Activators of 5'UTR Stem-Loop Driven Prion Protein mRNA Translation in H4 Neuroglioblastoma Cells. [Related pubchem assays: 1829 (Project Summary), 1814 (Primary HTS)]; format: functional; conditions: Homo sapiens
Cytochrome P450 3A4 = Cytochrome P450 3A4 (Homo sapiens, UniProt P08684);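 also: CYP3A4 tested as one member of a cytochrome P450 panel screen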
Sequence of Cytochrome P450 3A4 (P08684 whole entry): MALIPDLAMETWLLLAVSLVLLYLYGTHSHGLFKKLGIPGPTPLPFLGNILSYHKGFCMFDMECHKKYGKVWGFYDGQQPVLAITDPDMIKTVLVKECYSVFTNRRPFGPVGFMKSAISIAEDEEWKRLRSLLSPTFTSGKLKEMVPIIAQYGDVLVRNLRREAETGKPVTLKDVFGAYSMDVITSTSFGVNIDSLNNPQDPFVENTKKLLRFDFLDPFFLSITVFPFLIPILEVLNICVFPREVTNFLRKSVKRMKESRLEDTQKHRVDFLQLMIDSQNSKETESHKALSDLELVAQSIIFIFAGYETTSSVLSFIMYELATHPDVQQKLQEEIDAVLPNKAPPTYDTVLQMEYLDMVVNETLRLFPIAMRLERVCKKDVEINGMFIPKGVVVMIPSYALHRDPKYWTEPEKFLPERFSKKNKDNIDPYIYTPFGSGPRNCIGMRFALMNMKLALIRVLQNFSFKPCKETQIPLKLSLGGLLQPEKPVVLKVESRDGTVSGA

SMILES: COc1ccc2oc(=O)c(C(=O)Oc3ccc(NC(C)=O)cc3)cc2c1
- IC50 [1]: 24.5 µM (active)
- AC50 (Cytochrome P450 2C9): 39.8 µM (inconclusive)

SMILES: O=C(O)CCn1cc(C=C2C(=O)NC(=O)NC2=O)c(-c2cc3ccccc3oc2=O)n1
- AC50 [2]: 0.109 µM (active)

SMILES: COc1cccc(C(=O)Nc2ccc3[nH]c(O)nc3c2)c1OC
- EC50 [3]: > 120 µM (not active)
- EC50 [4]: < 0.1 µM (active)

SMILES: CNC(=O)c1cccn(Cc2cccc(C(F)(F)F)c2)c1=O
- EC50 [3]: 42.8 µM (active)
- EC50 [5]: 14.6 µM (active)
- EC50 [4]: > 120 µM (not active)

SMILES: CC(C)S(=O)(=O)c1csc(NC(=O)Nc2cc(Cl)ccc2Cl)c1Cl
- EC50 [6]: 1.3 µM (active)
- EC50 (Streptokinase A): 7.69 µM (active)
- EC50 (Streptococcus): 8.4 µM (active)

SMILES: Fc1ccc(-n2nnnc2S)cc1N1CCCC1
- AC50 [2]: 5.21 µM (active)

SMILES: COc1ccccc1CNCC(=O)NCc1ccc(C)cc1
- IC50 [1]: 163 µM (active)

SMILES: COc1ccc(CNc2ncc(-c3cccc([N+](=O)[O-])c3)n2C)c(OC)c1OC
- AC50 [2]: 0.035 µM (active)

SMILES: CCc1ccc(NC(=O)C2CCN(S(=O)(=O)c3ccc4c(c3)NC(=O)CO4)CC2)cc1
- EC50 [3]: > 120 µM (not active)
- EC50 [5]: > 120 µM (not active)
- EC50 [4]: > 120 µM (not active)

SMILES: Cc1ccc(-c2csc(NCCc3nc4cc(Cl)c(Cl)cc4n3CCOCCO)n2)cc1
- CC50 [7]: 9.53 µM (active)

SMILES: COc1cc(N2CCCC2)c(OC)cc1/C=C(/C#N)c1cccc(Br)c1
- CC50 [7]: > 50 µM (active)

SMILES: CC(C)n1cnc2c(NCc3ccccc3)nc(NCc3ccccc3)nc21
- EC50 [6]: 5.26 µM (active)
- EC50 (Streptokinase A): > 150 µM (not active)
- EC50 (Streptococcus): > 150 µM (not active)

SMILES: Cc1cc(C(=O)CC#N)c(C)n1-c1c(C)n(C)n(-c2ccccc2)c1=O
- EC50 [3]: > 120 µM (not active)
- EC50 [5]: > 120 µM (not active)
- EC50 [4]: > 120 µM (not active)

SMILES: O=C(Nc1ccc2nn(-c3ccc(F)cc3)nc2c1)c1cccnc1
- CC50 [7]: > 50 µM (active)

SMILES: COc1cc(C(=O)NNC(=S)NC(=O)c2ccccc2C)cc(OC)c1OC
- EC50 [6]: 2.06 µM (active)
- EC50 (Streptokinase A): > 150 µM (not active)
- EC50 (Streptococcus): 49.5 µM (active)

SMILES: Nc1cccc(Nc2ccccc2)c1
- AC50 [2]: 2.5 µM (active)

SMILES: COc1ccc(N2CCC(CN=C(S)Nc3cc(C)cc(C)c3)C2)cc1 (stereo unspecified)
- IC50 [1]: 108 µM (active)

SMILES: CC(=O)Nc1sc(NC(=O)c2ccc([N+](=O)[O-])cc2)nc1-c1cccs1
- EC50 [6]: > 150 µM (not active)
- EC50 (Streptokinase A): > 150 µM (not active)
- EC50 (Streptococcus): > 150 µM (not active)

SMILES: CCN(Cc1ccncc1)Cc1ccc(OC)cc1OC
- IC50 [1]: 117 µM (active)

SMILES: FC(F)(F)c1cc(CCN2C(=S)NC[C@@H]2CC2CCCCC2)cc(C(F)(F)F)c1
- EC50 (Streptokinase A): 7 µM (active)

SMILES: Fc1ccc(-c2ccnc3nc(-n4cccc4)nn23)cc1
- EC50 [3]: > 120 µM (not active)
- EC50 [5]: > 120 µM (not active)
- EC50 [4]: 39.7 µM (active)

SMILES: COc1cccc(C2Nc3ccc4ccccc4c3C3=C2C(=O)CCC3)c1O (stereo unspecified)
- EC50 [3]: 32.1 µM (active)
- EC50 [5]: 11.7 µM (active)
- EC50 [4]: 10 µM (active)

SMILES: O=C(NN=C(S)Nc1ccc(Cl)c(Cl)c1)c1cccc([N+](=O)[O-])c1
- CC50 [7]: 7.46 µM (active)

SMILES: O=C(O)c1ccc(NC(=O)c2cn(-c3ccccc3)nc2-c2cccc(Cl)c2)cc1
- CC50 [7]: 33.6 µM (active)

SMILES: COc1cccc(-n2cnc3cccc(N)c32)c1
- AC50 [2]: 24.2 µM (active)

SMILES: Cc1[nH]c2ccccc2c1CCNS(=O)(=O)c1ccc(S(N)(=O)=O)cc1
- AC50 [2]: 2.77 µM (active)

SMILES: O=C(c1cnn2c(C(F)(F)F)cc(-c3ccc(F)cc3)nc12)N1CCc2ccccc2C1
- EC50 [6]: 14 µM (active)
- EC50 (Streptokinase A): 37 µM (active)
- EC50 (Streptococcus): > 150 µM (not active)

SMILES: O=C(O)CSc1nnc(NC(=O)c2ccc3c(c2)OCO3)s1
- EC50 [3]: 16.2 µM (active)
- EC50 [5]: 62.2 µM (active)
- EC50 [4]: 13 µM (active)

SMILES: Cc1ccc(Nc2nnc(SCC(=O)c3ccc(Br)s3)s2)c(C)c1
- CC50 [7]: 24.4 µM (active)

SMILES: CC(C)(C)CC(C)(C)Nc1c(-c2ccc(O)cc2)nc2cnccn12
- EC50 [3]: 14.9 µM (active)
- EC50 [5]: 107 µM (active)
- EC50 [4]: 13.9 µM (active)

SMILES: CN1CCN(C(=S)c2ccc(-c3cccc(Cl)c3Cl)o2)CC1
- CC50 [7]: 20.7 µM (active)

SMILES: CC(C)C(=O)Nc1ccc(C(=O)NNC(=S)NC(=O)c2cccs2)cc1
- EC50 [6]: 6.98 µM (active)
- EC50 (Streptokinase A): > 150 µM (not active)
- EC50 (Streptococcus): 34.8 µM (active)

SMILES: Cc1ccc(OCCN2CCN(C)CC2)c([N+](=O)[O-])c1
- IC50 [1]: 75.4 µM (active)

SMILES: COc1ccc(C(=O)n2c(N)nc3ccccc32)cc1OC
- EC50 [8]: 0.429 µM (active)

SMILES: O=C(Cc1ccc(Cl)cc1)N1CCN(c2ccccc2)CC1
- AC50 [2]: 17.8 µM (active)

SMILES: COc1ccc(CCN2CC3=C(C2=O)C(c2ccccc2)NC(=O)N3C)cc1OC (stereo unspecified)
- EC50 [3]: > 120 µM (not active)
- EC50 [5]: > 120 µM (not active)
- EC50 [4]: 24.4 µM (active)

SMILES: CC1CCCCN1S(=O)(=O)c1ccc(NC(=O)c2cccs2)cc1 (stereo unspecified)
- CC50 [7]: 25.1 µM (active)

SMILES: COc1ccc(NC2CCCN(C(=O)c3cccc(N4CCNC4=O)c3)C2)cc1 (stereo unspecified)
- IC50 [1]: 75.2 µM (active)

SMILES: Nc1ccc2[nH]c(S)nc2c1
- IC50 [1]: 19.4 µM (active)

SMILES: Cc1ccc(C2Cc3cc(O)c(O)cc3CN2)cc1 (stereo unspecified)
- AC50 [2]: 4.2 µM (active)

SMILES: Sc1nnc2n1CCCN2
- AC50 [2]: 11.1 µM (active)

SMILES: CN(C)/C=N/c1ncnc2c1cnn2-c1ccc(C(F)(F)F)cn1
- EC50 [8]: > 120 µM (not active)
- EC50 (H4): > 120 µM (not active)

SMILES: COc1ccc(N)cc1NC(=O)CN1CCOCC1
- IC50 [1]: 118 µM (active)

SMILES: COc1ncnc2c1ncn2CCCNc1ccc(C)c(C)c1
- IC50 [1]: 102 µM (active)

SMILES: Cc1ccc(-n2nc3c(n2)/C(=N/O)CC/C3=N\O)cc1
- EC50 [8]: 1.05 µM (active)

SMILES: Oc1ccc(/C=N/Nc2cccc3cccnc23)c(O)c1
- EC50 (H4): 18.7 µM (active)

SMILES: OCCN(/C=N/C1=NN(c2cccc(C(F)(F)F)c2)CC1)CCO
- IC50 [1]: 30.9 µM (active)
- AC50 (Cytochrome P450 3A4): 14.1 µM (inconclusive)
- AC50 (Cytochrome P450 2C9): 0.0224 µM (inconclusive)

SMILES: COc1cc(/C=C/c2ccc(O)cc2)cc(OC)c1 [PTEROSTILBENE]
- AC50 [2]: 0.778 µM (active)
